Experimental data: patent US8609675B2, “Fused Tricyclic Compounds as novel mTOR inhibitors” (Merck Sharp & Dohme Corp., priority 2009, dated 2013)

Target: human mTOR enzyme (Homo sapiens, UniProt P42345)
Test: mTOR Kinase Assay
Type: biochemical
Settings: 5 μM ATP, 0.1 μM GST-S6K, rated A, B or C
Procedure: The mTOR assay buffer contained 10 mM hepes (pH 7.4), 50 mM NaCl, 100 μg/ml BSA, 50 mM β-glycerophosphate, 10 mM MnCl2 and 0.5 mM DTT. 20 ng of human mTOR enzyme was preincubated with the compound for 10 minutes. 5 μM ATP and 0.1 μM GST-S6K was added. The reaction was incubated for one hour at 30° C. Anti phospho p70-S6K (about 1.7 ng/well) and anti GST-XL665 (1:1 Ratio with the substrate GST-56K) were added after incubating. The plates were read at least 2 hours after adding the anti phospho p70-S6K and the anti GST-XL665.
IC50 DETERMINATIONS: Dose-response curves were plotted from the inhibition data generated, each in duplicate, from 8 point serial dilutions of inhibitory compounds. Concentration of compound was plotted against % kinase activity, calculated by CPM of treated samples divided by CPM of untreated samples. To generate IC50 values, the dose-response curves were then fitted to a standard sigmoidal curve and IC50 values were derived by nonlinear regression analysis.

Compound | IC50
O=C(O)CC1CCC(c2nc3c(-c4ccc(-c5ccccc5)nc4)cnn3c3[nH]ccc23)CC1 (mixture of isomers) [Compound 29] | < 0.001 µM
Cc1n[nH]c2c1c(C1CCS(=O)(=O)CC1)nc1c(-c3cnc4ccccc4c3)cnn12 [Compound 1, 3-(Quinolin-3-yl)-5-(1,1-dioxo-tetrahydro-2H-thiopyran-4-yl)-6-methyl-dipyrazolo[1,5-a:4′,3′-e]pyrimidine] | 0.01 to 0.1 µM
Cc1n[nH]c2c1c(CC1CCC(C)(C(=O)O)CC1)nc1c(-c3ccc(-c4cccnc4)nc3)cnn12 (stereo not shown) [Compound 2] | 0.001 to 0.01 µM
Cc1n[nH]c2c1c(CC1CCC(C)(C(=O)O)CC1)nc1c(-c3ccc(-c4ccccc4)nc3)cnn12 (stereo not shown) [Compound 3, 1-methyl-4-((3-methyl-6-(6-phenylpyridin-3-yl)-1H-dipyrazolo[1,5-a:4′,3′-e]pyrimidin-4-yl)methyl)cyclohexanecarboxylic acid] | 0.001 to 0.01 µM
Cc1n[nH]c2c1c(CC1CCC(C)(C(=O)O)CC1)nc1c(-c3ccc(-c4cnn(C)c4)nc3)cnn12 (stereo not shown) [Compound 4] | 0.001 to 0.01 µM
Cc1n[nH]c2c1c(CC1CCC(C(=O)O)CC1)nc1c(-c3ccc(-c4ccccc4)nc3)cnn12 (stereo not shown) [Compound 5, 4-((3-methyl-6-(6-phenylpyridin-3-yl)-1H-dipyrazolo[1,5-a:4′,3′-e]pyrimidin-4-yl)methyl)cyclohexanecarboxylic acid] | 0.001 to 0.01 µM
Cc1n[nH]c2c1c(CC1CCC(C(=O)O)CC1)nc1c(-c3ccc(-c4cnn(C)c4)nc3)cnn12 (stereo not shown) [Compound 6, 4-((3-methyl-6-(6-(1-methyl-1H-pyrazol-4-yl)pyridin-3-yl)-1H-dipyrazolo[1,5-a:4′,3′-e]pyrimidin-4-yl)methyl)cyclohexanecarboxylic acid] | 0.001 to 0.01 µM
Cc1n[nH]c2c1c([C@H]1CC[C@H](C(=O)O)CC1)nc1c(-c3cnc4ccccc4c3)cnn12 [Compound 7] | 0.01 to 0.1 µM
Cc1n[nH]c2c1c([C@H]1CC[C@H](C(=O)O)CC1)nc1c(-c3ccc(-c4ccccc4)nc3)cnn12 [Compound 8, (1R,4R)-4-(3-methyl-6-(6-phenylpyridin-3-yl)-1H-dipyrazolo[1,5-a:4′,3′-e]pyrimidin-4-yl)cyclohexanecarboxylic acid] | < 0.001 µM
O=S1(=O)CCC(c2nc3c(-c4ccc(-c5ccccc5)nc4)cnn3c3[nH]ccc23)CC1 [Compound 9] | 0.001 to 0.01 µM
O=S1(=O)CCC(c2nc3c(-c4ccc(-c5cccnc5)nc4)cnn3c3[nH]ncc23)CC1 [Compound 10] | 0.01 to 0.1 µM
O=S1(=O)CCC(c2nc3c(-c4cnc5ccccc5c4)cnn3c3[nH]ccc23)CC1 [Compound 11] | 0.001 to 0.01 µM
O=S1(=O)CCC(c2nc3c(-c4cnc5ccc(F)cc5c4)cnn3c3[nH]ccc23)CC1 [Compound 12] | 0.001 to 0.01 µM
O=S1(=O)CCN(c2nc3c(-c4cnc5ccccc5c4)cnn3c3[nH]ccc23)CC1 [Compound 13] | 0.001 to 0.01 µM
O=S1(=O)CCC(c2nc3c(-c4ccc(-c5ccccc5)nc4)cnn3c3[nH]ncc23)CC1 [Compound 15] | 0.001 to 0.01 µM
O=S1(=O)CCC(c2nc3c(-c4cnc5ccc(F)cc5c4)cnn3c3[nH]ncc23)CC1 [Compound 16] | 0.01 to 0.1 µM
CCc1n[nH]c2c1c(N1CCS(=O)(=O)CC1)nc1c(-c3cnc4ccccc4c3)cnn12 [Compound 17] | 0.001 to 0.01 µM

Compound | IC50
Cc1n[nH]c2c1c(C1CCS(=O)(=O)CC1)nc1c(-c3cnc4ccccc4c3)cnn12 [Compound 18] | 0.001 to 0.01 µM
Cc1n[nH]c2c1c(C1CCS(=O)(=O)CC1)nc1c(-c3ccc(-c4cccnc4)nc3)cnn12 [Compound 19] | 0.001 to 0.01 µM
Cc1n[nH]c2c1c(C1CCS(=O)(=O)CC1)nc1c(-c3ccc(-c4ccccc4)nc3)cnn12 [Compound 20] | 0.001 to 0.01 µM
Cc1n[nH]c2c1c(C1CCS(=O)(=O)CC1)nc1c(-c3cnc4ccc(F)cc4c3)cnn12 [Compound 21] | 0.001 to 0.01 µM
Cc1n[nH]c2c1c(C1CCC(CC(=O)O)CC1)nc1c(-c3ccc(-c4ccccc4)nc3)cnn12 (stereo not shown) [Compound 22, 2-(4-(3-methyl-6-(6-phenylpyridin-3-yl)-1H-dipyrazolo[1,5-a:4′,3′-e]pyrimidin-4-yl)cyclohexyl)acetic acid] | < 0.001 µM
O=C(O)[C@H]1CC[C@H](c2nc3c(-c4ccc(-c5ccccc5)nc4)cnn3c3[nH]ccc32)CC1 [Compound 23, (trans)-4-(3-(6-phenylpyridin-3-yl)-8H-pyrazolo[1,5-a]pyrrolo[3,2-e]pyrimidin-5-yl)cyclohexanecarboxylic acid] | 0.001 to 0.01 µM
O=C([C@H](O)CO)N1CCC(c2nc3c(-c4ccc(-c5ccccc5)nc4)cnn3c3[nH]ccc23)CC1 [Compound 24, (R)-2,3-dihydroxy-1-(4-(3-(6-phenylpyridin-3-yl)-8H-pyrazolo[1,5-a]pyrrolo[3,2-e]pyrimidin-5-yl)piperidin-1-yl)propan-1-one] | 0.001 to 0.01 µM
C[C@@H](O)C(=O)N1CCC(c2nc3c(-c4ccc(-c5ccccc5)nc4)cnn3c3[nH]ccc23)CC1 [Compound 25, (R)-2-hydroxy-1-(4-(3-(6-phenylpyridin-3-yl)-8H-pyrazolo[1,5-a]pyrrolo[3,2-e]pyrimidin-5-yl)piperidin-1-yl)propan-1-one] | 0.001 to 0.01 µM
Cc1n[nH]c2c1c(CNC1CCOCC1)nc1c(-c3cnc4ccccc4c3)cnn12 [Compound 26, N-((3-methyl-6-(quinolin-3-yl)-1H-dipyrazolo[1,5-a:4′,3′-e]pyrimidin-4-yl)methyl)tetrahydro-2H-pyran-4-amine] | 0.001 to 0.01 µM
CS(=O)(=O)N1CCC(c2nc3c(-c4ccc(-c5ccccc5)nc4)cnn3c3[nH]ccc23)C1 (stereo not shown) [Compound 27, 5-(1-(methylsulfonyl)pyrrolidin-3-yl)-3-(6-phenylpyridin-3-yl)-8H-pyrazolo[1,5-a]pyrrolo[3,2-e]pyrimidine] | 0.001 to 0.01 µM
CC1(C(=O)O)CC=C(c2nc3c(-c4ccc(-c5ccccc5)nc4)cnn3c3[nH]ccc23)CC1 (stereo not shown) [Compound 28] | 0.001 to 0.01 µM
Cc1n[nH]c2c1c(C1CCN(C(=O)[C@@H](C)O)CC1)nc1c(-c3ccc(-c4ccccc4)nc3)cnn12 [Compound 30, (R)-2-hydroxy-1-(4-(3-methyl-6-(6-phenylpyridin-3-yl)-1H-dipyrazolo[1,5-a:4′,3′-e]pyrimidin-4-yl)piperidin-1-yl)propan-1-one] | 0.001 to 0.01 µM
O=S1(=O)CCC(c2nc3c(-c4cnc5ccc(F)cc5c4)cnn3c3[nH]cc(Cl)c23)CC1 [Compound 31] | 0.001 to 0.01 µM
O=S1(=O)CCC(c2nc3c(-c4ccc(-c5ccccc5)nc4)cnn3c3[nH]cc(Cl)c23)CC1 [Compound 32] | 0.001 to 0.01 µM
C[C@@H](O)C(=O)N1CCC(Cc2nc3c(-c4ccc(-c5ccccc5)nc4)cnn3c3[nH]ccc23)CC1 [Compound 33, (R)-2-hydroxy-1-(4-((3-(6-phenylpyridin-3-yl)-8H-pyrazolo[1,5-a]pyrrolo[3,2-e]pyrimidin-5-yl)methyl)piperidin-1-yl)propan-1-one] | 0.01 to 0.1 µM
C[C@@H](O)C(=O)N1CCC(c2nc3c(-c4ccc(-c5ccccc5)nc4)cnn3c3[nH]cc(Cl)c23)CC1 [Compound 34, (R)-1-(4-(6-chloro-3-(6-phenylpyridin-3-yl)-8H-pyrazolo[1,5-a]pyrrolo[3,2-e]pyrimidin-5-yl)piperidin-1-yl)-2-hydroxypropan-1-one] | 0.001 to 0.01 µM
C[C@@H](O)C(=O)N1CCC(Oc2nc3c(-c4ccc(-c5ccccc5)nc4)cnn3c3[nH]ccc23)CC1 [Compound 35, (R)-2-hydroxy-1-(4-(3-(6-phenylpyridin-3-yl)-8H-pyrazolo[1,5-a]pyrrolo[3,2-e]pyrimidin-5-yloxy)piperidin-1-yl)propan-1-one] | 0.01 to 0.1 µM
